The structures appear in SMILES notation. Like-named read-outs stand apart in the source and are kept apart here.

One test deals with HepG2 (wt-p53). Description: cells. It is filed as cell-based, human. The settings on record: for IC50: Homo sapiens, HepG2, means of three experiments, 72 h, read-out: MTT IC50 HepG2 (wt-p53). Here is the method: (§1) In order to further confirm whether they inhibit MDM2 and release p53, a cellular test using HepG2 cell line (wild-type p53; wt-p53) vs. Hep3B cell line (p53 null) was carried out. The selectivity was calculated by IC50 against Hep3B divided by HepG2 (Table 1). The larger the selectivity value was, the stronger the interaction force between the ligands and MDM2.
(§2) The cellular growth inhibitory activity was determined using two human hepatoma cell lines, HepG2 (with wild-type p53) and Hep3B (with wt-p53 null). The IC50 was then analyzed using the GraphPad Prism 5 software (see Supplemental Materials).
(§3) In vitro antitumor activity.
(§4) Liver hepatocellular carcinoma HepG2 (with wild-type p53) and Hep3B (with p53 null) cell lines […]
(§5) 37°C in a humidified 5% carbon dioxide humidified incubator.
(§6) 5-6×10^4 cells per well were plated in 96-well plates (Costar) for 24 h, and the test compounds (prepared in 100% DMSO as a stock solution) were added in triplicate (100µL per well). 8 different concentrations (from 0.05 to 100µM) were tested for each compound. For each assay, the controls included only the medium (blank) and only the cells (positive). After 72 h of incubation, 20 µL of MTT (3-[4,5-dimethylthiazol-2-yl]-2,5-diphenyltetrazoliumbromide) solution (5 mg/mL) was added to each well, and after the samples were shaken for 1 min the plate was incubated further for 4 h at 37°C. […] were dissolved with 150 µL of DMSO and the plates were read using Eon (BioTek) at 570 nm. The IC50 was then analyzed using GraphPad Prism software. […]

The test system of another test is Hep3B (p53 null). As to the kind of experiment: cells. It is filed as cell-based. The settings on record: Homo sapiens, means of three experiments, 72 h, read-out: MTT IC50 Hep3B (p53 null). The protocol:
as §1, §2, §3, §4, §5, §6

Test [1] concerns the target T1, human recombinant His-fused soluble protein MDM2 (residues 1–118) (Homo sapiens, UniProt Q00987).
T1 construct: His-fused soluble protein MDM2 (residues 1–118); His
Description: biochemical. It is filed as binding. To be noted: for FQ-Test: fit quality calculated using pKi tested by FP; for Ki: fluorescence polarization assay.

The subject of the next test is MDM2/p53 PPI. To be noted: Figure 9, representative of each group; collected from the literature; cited from earlier work.
The mark [2] stands for this setting: IC50 of Hep3B (p53 null) divided by HepG2 (wt-p53).

T1 sequence (Q00987 1-118): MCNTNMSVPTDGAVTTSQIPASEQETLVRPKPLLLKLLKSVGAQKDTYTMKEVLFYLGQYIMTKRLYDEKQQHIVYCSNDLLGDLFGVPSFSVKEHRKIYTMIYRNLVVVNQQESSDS

As to `O=C(Nc1nc2ccccc2s1)c1ccccc1C(=O)c1ccc(Cl)cc1` [compound 3], in the test with HepG2 (wt-p53), the Selectivity was 10.75 and the IC50 (as a rule, the concentration needed to halve the response being measured) came to 4.4 µM. Also, the half-inhibitory concentration (IC50) in the test on Hep3B (p53 null) was 47.3 µM. Further, in test [1], the FQ-Test was 0.86 and the inhibition constant (Ki) (commonly a measure of affinity in units of concentration, obtained from inhibition or displacement) was 0.62 µM.
For the compound `CCOc1cc(C(C)(C)C)ccc1C1=N[C@@](C)(c2ccc(Cl)cc2)[C@@](C)(c2ccc(Cl)cc2)N1C(=O)N1CCN(CCCS(C)(=O)=O)CC1` [A], the IC50 with MDM2/p53 PPI is 0.09 µM.
`COC(=O)c1cc(Oc2ccc(C(F)(F)F)cc2NS(=O)(=O)c2cccc(Cl)c2C)cs1` [compound 5]: in the test with HepG2 (wt-p53), the IC50 is 4.77 µM. The Selectivity with HepG2 (wt-p53) (setting [2]) was determined as 4.87. In addition, the IC50 with Hep3B (p53 null) is 23.2 µM. In test [1], the FQ-Test is 0.80 and the inhibition constant (Ki) is 0.94 µM.
As for `Nc1c(Cl)cc([C@@H](O)CN[C@H]2c3ccccc3CSc3ccccc32)cc1Cl` [compound 4], in the test with HepG2 (wt-p53), the Selectivity is listed as 6.51 and the 50% inhibitory concentration (IC50) is 5.35 µM. Also, the IC50 in the test with Hep3B (p53 null) amounted to 34.8 µM. In addition, in test [1], the FQ-Test is 0.83 and the inhibition constant (Ki) came out at 0.82 µM.
On to `CC(C)C(CS(=O)(=O)C(C)C)N1C(=O)C(C)(CC(=O)O)CC(c2cccc(Cl)c2)C1c1ccc(Cl)cc1` (stereo not shown) [B], for which the half-inhibitory concentration (IC50) with MDM2/p53 PPI was 0.0001 µM.
Consider `COc1cc(C(=O)O)ccc1NC(=O)[C@@H]1N[C@@H](CC(C)(C)C)[C@](C#N)(c2ccc(Cl)cc2F)[C@H]1c1cccc(Cl)c1F` [G], for which the IC50 in the test with MDM2/p53 PPI is 0.006 µM.
Regarding `CCOc1ccccc1Oc1cnc(N)nc1-c1ccc(OCc2ccc(C)cc2)cc1O` [compound 6], in the test with HepG2 (wt-p53), the Selectivity is given as 3.71 and the IC50 was 5.54 µM. The concentration for half-maximal inhibition (IC50) in the test on Hep3B (p53 null) was determined as 20.5 µM. For the same compound, in test [1], the FQ-Test is given as 0.83 and the inhibitory constant (Ki) turned out to be 0.59 µM.
Turning to `COc1ccc(OC)c(S(=O)(=O)N(C)CC(=O)Nc2ccccc2OC)c1` [compound 2], the concentration for half-maximal inhibition (IC50) in the test with HepG2 (wt-p53) was determined as 5.38 µM; in the test with Hep3B (p53 null) it was 33.5 µM. The Selectivity in the test with HepG2 (wt-p53) (setting [2]) came out at 6.23. Besides, the FQ-Test in test [1] is on record as 0.78. In test [1], the Ki is 2.21 µM.
Consider `CCCCN1C(=O)[C@](O)(CC(=O)c2ccccc2OC)c2cc(Br)ccc21` [compound 1], for which, in the test on HepG2 (wt-p53), the Selectivity stood at 8.98 and the IC50 came to 8.63 µM. Further, the IC50 with Hep3B (p53 null) turned out to be 77.5 µM. In addition, in test [1], the FQ-Test is reported as 0.75 and the Ki was found to be 3.9 µM.
As for `CC(C)(C)CC1NC(C(=O)NC2CCC(O)CC2)C(c2cccc(Cl)c2F)C12C(=O)Nc1cc(Cl)ccc12` (stereo not shown) [H], in the test on MDM2/p53 PPI, the IC50 is 0.214 µM.

Source of the values: paper PMC6321222, “An Application of Fit Quality to Screen MDM2/p53 Protein-Protein Interaction Inhibitors” (Molecules, 2018).
